# Data reported in US20230102309A1, “TYROSINE KINASE INHIBITOR CONJUGATES” (Ascendis Pharma Oncology Division A/S, priority 2019, published 2023).
# Marks after values point to notes of the source that are not given here.
# Columns and labels:
# [1] = Axitinib concentration in plasma samples; assay type: in vivo, C57BL/6 mice; conditions: female, C57BL/6, mouse, 9c single IT 50 μL (n=4), Axitinib 3 mg/kg oral (n=3), LLOQ 50.0 pg/mL
# Protocol: (§1) The study was conducted in female C57BL/6 mice with an age of 6-8 weeks at the day of tumor inoculation. Mice were implanted with 1×10^6 of MC-38/C11G tumor cells into the right flank.
# (§2) When tumors were grown to a mean tumor volume of ˜94 mm^3, mice were randomized into treatment cohorts (day 0). Following randomization, animals received either a single intratumoral injection of hydrogel 1 or hydrogel 9c as a single intratumoral dose in an injection volume of 50 μL, or with orally administered Axitinib suspended in 0.5% carboxymethylcellulose at 3 mg/kg in a 100 μl dose volume twice a day for 14 days. Hydrogels were administered as suspensions in pH 5.5 20 mM sodium succinate, 77 g/l trehalose dihydrate, 0.2% Pluronic F-68 buffer.
# After 0.5, 1, 4 12, and 24 hours following treatment, 4 mice from the hydrogel 9c and Axitinib treated groups were sacrificed and terminal blood was collected in EDTA. Plasma was prepared after blood withdrawal. After 72 hours following treatment, 4 mice from the hydrogel 9c treated group were sacrificed and tumors were excised and snap frozen. Plasma samples underwent further processing by solid-phase extraction prior to Axitinib concentration determination by LCMS/MS.
# All solvents (UPLC grade) as well as formic acid (ULC/MS quality) were purchased from Biosolve BV, Valkenswaard, The Netherlands. Axitinib concentrations in plasma were determined after solid phase extraction via liquid chromatography separation and detection by mass spectrometry (LCMS). As internal standard [^13C, D3]-axitinib was used. LCMS analysis was carried out by using an Agilent Infinity ultra high performance liquid chromatography (UHPLC) system coupled to an AbSciex 6500+ QTrap triple quadrupole mass spectrometer (QQQ) via an ESI probe. Chromatography was performed on a C18 analytical UHPLC column (YMC-Triart, 2.1×50 mm, 1.9 μm particle). Water containing 0.1% formic acid (v/v) was used as mobile phase A and acetonitrile with 0.1% formic acid as mobile phase B. The gradient system comprised a linear increase from 15% B to 30% B in 2.7 min. […]
# MC-38 tumor cells = experiment: In vivo anti-tumor efficacy and combination efficacy with anti-PD1, bilateral MC-38 tumors; parameters: species or system C57BL/6 mice; conditions: Axitinib 25 mg/kg oral twice daily, antibodies 10 mg/kg IP; for Absolute tumor volume of left flank tumors, mean: left (not injected) tumor, hydrogels 50 μL IT into right tumor once Day 0 (7a 378, 8a 136, 8b 47 μg eq. axitinib); for Absolute tumor volume of right flank tumors, mean: right (IT-treated) tumor, hydrogels 50 μL IT once Day 0 (7a 378, 8a 136, 8b 47 μg eq. axitinib)
# Protocol: The study was conducted in female C57BL/6 mice with an age of 6-8 weeks at the day of tumor inoculation. Mice were implanted with 1×10^6 MC-38 tumor cells into the left and right flanks. When right flank tumors were grown to a mean tumor volume of ˜104 mm^3, mice were randomized into treatment cohorts. For animals that received intratumoral injections, the right tumor was selected for treatment.
# (§3) Following treatment initiation, anti-tumor efficacy was assessed by determination of tumor volumes at various time points from tumor size measurements with a caliper. Tumor volumes were calculated according to the formula: […]
# (§4) where L is the length of the tumor and W the width (both in mm).
# MC-38/C11G tumor cells = experiment: Anti-tumor efficacy within the in vivo PK study; parameters: species or system C57BL/6 mice; conditions: Axitinib 3 mg/kg oral twice a day for 14 days, 9c single IT 50 μL
# Protocol: as §1, §2, §3, §4
compound,measurement,setting,value
"CNC(=O)c1ccccc1Sc1ccc2c(/C=C/c3ccccn3)n[nH]c2c1 [Axitinib, axitinib]",concentration at 0.5 h,[1]; 0.5 h,101 ng/mL
same,concentration at 1 h,[1]; 1 h,76.8 ng/mL
same,concentration at 12 h,[1]; 12 h,0.797 ng/mL
same,"Absolute tumor volume of left flank tumors, mean",MC-38 tumor cells; day 0 post-treatment,112.18 mm^3
same,"Absolute tumor volume of right flank tumors, mean",MC-38 tumor cells; day 0 post-treatment,104.22 mm^3
same,"Absolute tumor volume of left flank tumors, mean",MC-38 tumor cells; day 3 post-treatment,321.44 mm^3
same,"Absolute tumor volume of right flank tumors, mean",MC-38 tumor cells; day 3 post-treatment,304.55 mm^3
same,"Absolute tumor volume of left flank tumors, mean",MC-38 tumor cells; day 5 post-treatment,432.85 mm^3
same,"Absolute tumor volume of right flank tumors, mean",MC-38 tumor cells; day 5 post-treatment,419.99 mm^3
same,"Absolute tumor volume of left flank tumors, mean",MC-38 tumor cells; day 7 post-treatment,601.11 mm^3
same,"Absolute tumor volume of right flank tumors, mean",MC-38 tumor cells; day 7 post-treatment,543.06 mm^3
same,"Absolute tumor volume of left flank tumors, mean",MC-38 tumor cells; day 10 post-treatment,741.81† mm^3
same,"Absolute tumor volume of right flank tumors, mean",MC-38 tumor cells; day 10 post-treatment,763.99 mm^3
same,"Absolute tumor volume of left flank tumors, mean",MC-38 tumor cells; day 12 post-treatment,"967.56†, †† mm^3"
same,"Absolute tumor volume of right flank tumors, mean",MC-38 tumor cells; day 12 post-treatment,994.16† mm^3
same,"Absolute tumor volume, mean",MC-38/C11G tumor cells; day 0 post-treatment,93.862 mm^3
same,"Absolute tumor volume, mean",MC-38/C11G tumor cells; day 4 post-treatment,243.647 mm^3
same,"Absolute tumor volume, mean",MC-38/C11G tumor cells; day 7 post-treatment,418.787 mm^3
same,"Absolute tumor volume, mean",MC-38/C11G tumor cells; day 11 post-treatment,710.390 mm^3
same,"Absolute tumor volume, mean",MC-38/C11G tumor cells; day 14 post-treatment,977.619* mm^3
